According to patent publication US7772252B2, “Heterocyclic substituted carbonyl derivatives and their use as dopamine D3 receptor ligands” (Aventis Pharmaceuticals Inc., priority 2001, dated 2010):

target: T1, cloned human alpha-1A adrenergic receptors (α1a) (Homo sapiens, UniProt P35348); test: [3H]Prazosin binding to cloned human alpha-1A adrenergic receptors expressed in CHO cells; settings: read-out: halpha1Ki (nM) h = human
T1 construct: expressed in transfected cells; membranes
T1 sequence (P35348 1-466): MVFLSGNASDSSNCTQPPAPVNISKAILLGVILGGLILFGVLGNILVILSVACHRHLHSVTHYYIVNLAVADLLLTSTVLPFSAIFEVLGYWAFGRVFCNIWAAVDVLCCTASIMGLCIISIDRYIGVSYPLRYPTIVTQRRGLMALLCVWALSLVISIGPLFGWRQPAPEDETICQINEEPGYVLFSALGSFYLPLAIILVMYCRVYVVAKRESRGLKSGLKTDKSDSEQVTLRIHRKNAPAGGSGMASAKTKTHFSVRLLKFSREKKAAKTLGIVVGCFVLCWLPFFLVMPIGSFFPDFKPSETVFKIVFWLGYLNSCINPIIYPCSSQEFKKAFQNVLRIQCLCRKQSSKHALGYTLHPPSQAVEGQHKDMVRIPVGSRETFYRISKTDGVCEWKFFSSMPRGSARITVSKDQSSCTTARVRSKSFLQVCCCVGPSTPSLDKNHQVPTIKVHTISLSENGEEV
From the text: ^3H]Prazosin Binding to Cloned Human Alpha-1A Adrenergic Receptors (α1a) Expressed in Chinese Hamster Ovary Cells (CHO)
• Purpose: This in vitro assay is designed as a screen to identify compounds displaying a affinity for the human α1a adrenoceptor subtype expressed in the membrane fragments of CHO cells. The assay measures the ability of the test compounds to displace [^3H] prazosin from α1a sites. • The identification of multiple vascular α1-addrenoceptors (α1a, α1b, α1d) in vitro has provided impetus to define the role(s) of these subtypes in cardiovascular regulation in vivo (Vargas and Gorman, 1995). […] Prazosin is a potent antagonist of the human α1a-adrenoceptor subtype, which has been cloned and is expressed in the membrane fragments of CHO cells. • hα1a receptor: The cloning of the human α1a cDNA was accomplished first by screening a human prostate cDNA library (Clontech), from which a portion of the coding region was obtained. This DNA fragment was then used to screen a human leukocyte genomic library (Clontech), and the rest of the coding sequence was obtained. Later these two fragments were spliced together. The entire coding sequence was then fully sequenced including matching PCR sequence with original genomic coding sequence, thus ensuring splice sites were joined correctly (Schwinn et al., 1995). Once sequenced, the gene was subcloned into the expression vector pcDNA3 (Invitrogen). Plasmid DNA was then used for transfection into CHO cells and G418 resistant clones were isolated. A clone expressing high levels of the hα1a receptor (as determined by mRNA and receptor binding data) was chosen and pharmacologically characterized. • Culture Media Ingredients for Adherent α1a expressing CHO Culture: • A. HAM's F-12 (Celigro) • B. 10% 0.2 micron filtered Fetal Bovine Serum (FBS)(Celigro) • C. 1% 0.2 micron filtered Penicillin-Streptomycin (Celigro) • D. G418 0.2 micron filtered (Geneticin 400 μg/ml)(Celigro) • Cells are cultured using established methods and procedures in either 150×25 mm culture plates (scale up to 100 plates) or a combination of these plates and 70 roller bottles. One culturing/harvest cycle typically requires 2 weeks and yields between 100-400 mg protein. Plates or bottles are incubated at 37° C.+5% CO2. • Storage: Cells are harvested by mechanical scraping, washed using PBS, collected in 250 ml Corning polypropylene centrifuge tubes, spun down (1500 RPM) and resuspended in dH2O 10% DMSO (final volume per harvest is approximately 50 ml). Protein determination is made using the Biorad DC Assay Kit. Finally, the appropriate volume is aliquoted into a 2 ml Corning Cryovial (10 mg/1-1.5 ml) which is stored at −80° C.
• Assay Requirement: 0.5 cryovials per 96 well plate (assay volume=200 μl/well) • [^3H]-Ligand: [7-methoxy-^3H]-Prazosin: 1.0 nM (NEN, NET-823) • 70-87 Ci/mmol • Materials: Phentolamine mesylate (Research Biochemicals Int. #P-131) • 96 well flat bottom plates (Beckman) • Unifilter GF/B Plate (Packard) • Polyethylenimine (Sigma #P-3134) • TomTec or Packard Filtermate 196 Cell Harvesters • Packard TopCount Scintillation Counter • Buffers: A: 50 mM Tris HCl; 0.1% ascorbate, pH 7.7 (incubation buffer) • B: 50 mM Tris HCl; pH 7.7 (wash buffer) • Procedure: Assay additions are as follows (in the order indicated): • Total Binding=50 μl buffer A+50 μl [^3H]prazosin+100 μl membrane • Nonsp. Bd.=50 μl 10 μM phentolamine+50 μl [^3H]prazosin+100 μl membrane • Test Cpd.=50 μl compound+50 μl [^3H]prazosin+100 μl membrane • Compounds to be evaluated are weighed out to yield a 10 mM stock solution in DMSO in a 24 well polystyrene plate. This is diluted to a 0.5 mM stock in dH2O, Serial dilutions in Buffer A are made from which 50 μl additions to the plate are made in duplicate in order to achieve the final concentrations desired. Typically, one 96 well plate is used to evaluate 11 compounds at 4 concentrations (10^−6-10^−9 M) in duplicate. Total binding and nonspecific binding are determined in quadruplicate. […]

Ki [nM]	Compound
9.82	CC1(C)CCCN(C(=O)CCCN2CCN(c3csc4cc(F)ccc34)CC2)C1 (racemic) [compound 826857]
32.2	CN(C)C1CCN(C(=O)CCCN2CCN(c3csc4cc(F)ccc34)CC2)C1 (centres unmarked) [compound 826863]

target: T2, cloned human dopamine D3 receptors (Homo sapiens, UniProt P35462); test: [N-Methyl-3H]Spiroperidol binding to cloned human dopamine D3 receptors; settings: read-out: D3 Ki
T2 construct: expressed in transfected cells; membrane homogenate
Procedure, shortened: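 Radioligand displacement with [N-methyl-3H]spiroperidol was run on membranes from a high-expressing CHO clone carrying human D3. Membranes were prepared in 10% DMSO and stored at −80° C.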

T2 sequence (P35462 whole entry): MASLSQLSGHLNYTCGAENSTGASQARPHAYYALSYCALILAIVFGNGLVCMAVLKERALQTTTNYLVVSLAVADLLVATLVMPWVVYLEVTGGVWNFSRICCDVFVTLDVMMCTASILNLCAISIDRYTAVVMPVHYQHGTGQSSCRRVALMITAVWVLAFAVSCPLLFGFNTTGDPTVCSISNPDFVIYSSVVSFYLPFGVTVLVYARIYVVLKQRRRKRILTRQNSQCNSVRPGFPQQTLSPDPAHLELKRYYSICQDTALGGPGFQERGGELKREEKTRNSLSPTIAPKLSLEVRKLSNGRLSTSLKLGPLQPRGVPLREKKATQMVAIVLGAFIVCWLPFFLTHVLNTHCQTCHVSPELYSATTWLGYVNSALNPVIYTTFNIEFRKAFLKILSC

Compound	Ki [nM]
Cn1nc(C2CCN(C[C@@H]3C[C@H]3C(=O)N[C@H]3CC[C@H](C)CC3)CC2)c2ccc(Br)cc21 [compound 833693]	18.4
C[C@H]1CC[C@H](NC(=O)[C@@H]2C[C@H]2CN2CCC(c3n[nH]c4cc(Br)ccc34)CC2)CC1 [compound 833694]	46.9
C[C@H]1CC[C@H](NC(=O)[C@@H]2C[C@H]2CN2CCC(c3nn(-c4cccnc4)c4ccccc34)CC2)CC1 [compound 833695]	176
Cn1nc(C2CCN(C[C@@H]3C[C@H]3C(=O)N[C@H]3CC[C@H](C)CC3)CC2)c2ccc(C(F)(F)F)cc21 [compound 833696]	268
C[C@H]1CC[C@H](NC(=O)[C@@H]2C[C@H]2CN2CCC(c3nn(C4CCCCC4)c4cc(C(F)(F)F)ccc34)CC2)CC1 [compound 833697]	105
C[C@H]1CC[C@H](NC(=O)[C@@H]2C[C@H]2CN2CCC(c3nn(-c4ccc(F)cc4)c4cc(C(F)(F)F)ccc34)CC2)CC1 [compound 833698]	134
C[C@H]1CC[C@H](NC(=O)[C@@H]2C[C@H]2CN2CCC(c3nsc4cc(Br)ccc34)CC2)CC1 [compound 833703]	1.92
O=C(NC1CCN(C(=O)Nc2ccc(Cl)cc2)CC1)[C@@H]1C[C@H]1CN1CCC(c2noc3ccsc23)CC1 [compound 833714]	4.16
O=C(NC1CCN(CCc2cccc(Cl)c2)CC1)[C@@H]1C[C@H]1CN1CCC(c2noc3ccsc23)CC1 [compound 833748]	1.38
C[C@H]1CC[C@H](NC(=O)[C@@H]2C[C@H]2CN2CCC(c3nn(-c4ccccc4)c4ccsc34)CC2)CC1 [compound 833909]	1.86
C[C@H]1CC[C@H](NC(=O)[C@@H]2C[C@H]2CN2CCC(c3n[nH]c4ccc(C(F)(F)F)cc34)CC2)CC1 [compound 833934]	0.633
C[C@H]1CC[C@H](NC(=O)[C@@H]2C[C@H]2CN2CCC(c3n[nH]c4cc(C(F)(F)F)ccc34)CC2)CC1 [compound 833941]	8.98
C[C@H]1CC[C@H](NC(=O)[C@@H]2C[C@H]2CN2CCC(c3noc4ccc(C(F)(F)F)cc34)CC2)CC1 [compound 834012, 2R-[4-(5-Trifluoromethyl-benzo[d]isoxazol-3-yl)-piperidin-1-ylmethyl]-cyclopropane-1R-carboxylic acid trans-(4-methyl-cyclohexyl)-amide]	0.241
COc1cccc2c(C3CCN(C[C@@H]4C[C@H]4C(=O)NC4CC5CCC4(C)C5(C)C)CC3)nn(C)c12 (some centres unmarked) [compound 834055]	62
COc1cccc2c(C3CCN(C[C@@H]4C[C@H]4C(=O)NCCCN4CCCCC4)CC3)nn(C)c12 [compound 834056]	93.2
COc1cccc2c(C3CCN(C[C@@H]4C[C@H]4C(=O)NCC45CC6CC(CC(C6)C4)C5)CC3)nn(C)c12 [compound 834057]	89.4
COc1cccc2c(C3CCN(C[C@@H]4C[C@H]4C(=O)NCCCn4ccnc4)CC3)nn(C)c12 [compound 834058]	91.4
Cc1ccc2c(c1)c(C1CCN(C[C@@H]3C[C@H]3C(=O)N[C@H]3CC[C@H](C)CC3)CC1)nn2C [compound 834059]	2.76
Cc1ccc2c(c1)c(C1CCN(C[C@@H]3C[C@H]3C(=O)NCCCn3ccnc3)CC1)nn2C [compound 834129]	6.75
COc1cccc2c(C3CCN(C[C@@H]4C[C@H]4C(=O)NC4CC5CC(C4C)C5(C)C)CC3)nn(C)c12 (some centres unmarked) [compound 834171]	65.2

Continued, values first:

Ki [nM]	Compound
7.22	O=C(NCCCN1CCCCC1)[C@@H]1C[C@H]1CN1CCC(c2csc3c(C(F)(F)F)cccc23)CC1 [compound 833686]
7.2	C[C@H]1CC[C@H](NC(=O)[C@@H]2C[C@H]2CN2CCN(c3nc4cccc5c4n3CCC5)CC2)CC1 [compound 833699, 2R-[4-(5,6-Dihydro-4H-imidazo[4,5,1-ij]quinolin-2-yl)-piperazin-1-ylmethyl]-1R-cyclopranecarboxylic acid (trans-4-methyl-cyclohexyl)-amide]
3.24	C[C@H]1CC[C@H](NC(=O)[C@@H]2C[C@H]2CN2CCN(c3csc4ncccc34)CC2)CC1 [compound 833700]
1.28	C[C@H]1CC[C@H](NC(=O)[C@@H]2C[C@H]2CN2CCN(c3nn(-c4ccc(F)cc4)c4ccccc34)CC2)CC1 [compound 833701]
0.495	Cn1nc(N2CCN(C[C@@H]3C[C@H]3C(=O)N[C@H]3CC[C@H](C)CC3)CC2)c2ccccc21 [compound 833702]
2.3	COc1ccc2[nH]nc(N3CCN(C[C@@H]4C[C@H]4C(=O)N[C@H]4CC[C@H](C)CC4)CC3)c2c1 [compound 833704]
0.333	COc1ccc2c(c1)c(N1CCN(C[C@@H]3C[C@H]3C(=O)NC3CCN(Cc4ccc(Cl)cc4)CC3)CC1)nn2C [compound 833834]
0.499	COc1ccc2c(c1)c(N1CCN(C[C@@H]3C[C@H]3C(=O)NC3CCN(Cc4ccc(F)cc4)CC3)CC1)nn2C [compound 833835]
1.36	COc1ccc2c(c1)c(N1CCN(C[C@@H]3C[C@H]3C(=O)NC3CCN(Cc4cccc(Cl)c4)CC3)CC1)nn2C [compound 833836]
12.4	O=C(N[C@H]1CC[C@H](O)CC1)[C@@H]1C[C@H]1CN1CCN(c2nn(-c3ccc(OC(F)(F)F)cc3)c3ccsc23)CC1 [compound 833855]
1.24	O=C(NCCCN1CCCCC1)[C@@H]1C[C@H]1CN1CCC(c2csc3cc(C(F)(F)F)ccc23)CC1 [compound 834015]
1.62	O=C([C@@H]1C[C@H]1CN1CCC(c2csc3cc(C(F)(F)F)ccc23)CC1)N1CCC(Cn2ccnc2)CC1 [compound 834017]
0.837	O=C(NCCCn1ccnc1)[C@@H]1C[C@H]1CN1CCN(c2csc3cc(Cl)ccc23)CC1 [compound 834172]
90.5	O=C(NCCCN1CCOCC1)[C@@H]1C[C@H]1CN1CCN(c2nn(-c3ccc(C(F)(F)F)cc3)c3ccsc23)CC1 [compound 834205]
88.8	O=C(NCCCN1CCSCC1)[C@@H]1C[C@H]1CN1CCN(c2nn(-c3ccc(C(F)(F)F)cc3)c3ccsc23)CC1 [compound 834206]
71.4	CC1CCN(CCCNC(=O)[C@@H]2C[C@H]2CN2CCN(c3nn(-c4ccc(OC(F)(F)F)cc4)c4ccsc34)CC2)CC1 [compound 834207]
